Measured values published in patent US12023311B2, “Delayed release pharmaceutical formulations comprising valproic acid, and uses thereof” (Cereno Scientific AB, priority 2016, dated 2024).
Read-outs that look alike come from different tables or passages of the source.

Legend:
PAI-1 [1] = conditions: in vivo model in mouse (Larsson, Alwis et al. 2016); cited from earlier work
PAI-1 [2] = test: Proof-of-concept study in healthy subjects: plasma PAI-1 before and after valproic acid; format: in vivo, human; conditions: p<0.05
Procedure: (§1) The effects of VPA on PAI-1 were analysed in two different proof-of-concept studies in healthy subjects as well as in patients with manifest atherosclerotic disease. […] PAI-1 plasma levels were measured in the morning at the first day of the study as well as at the end of the treatment period with VPA (see example 2 for details on the PAI-1 analysis).
In the first study, 10 healthy non-smoking white male subjects (with mean BMI of approximately 26), aged 50-70 years were included and treated with valproic acid 500 mg (Ergenyl Retard. Sanofi) twice daily during 14 days.

PAI-1 [3] = test: Proof-of-concept study in patients with a history of myocardial infarction: plasma PAI-1 before and after valproic acid; format: in vivo, human; conditions: midmorning, p=0.01; for reduction in circulating plasma PAI-1 levels: 16 male patients aged 50-80 with history of myocardial infarction, valproic acid 500 mg (Ergenyl Retard, Sanofi) twice daily 28 days on top of ordinary prescription
Procedure: as §1
In the second study, 16 non-smoking white male patients, aged 50-80 years with a history of a myocardial infarction were included. On top of their ordinary prescription (beta-blocker, ACE-inhibitor, statin, aspirin) they were treated with valproic acid 500 mg (Ergenyl Retard, Sanofi), twice daily during 28 days.

[4] = Intermediate endpoint study in patients with TIA/minor stroke: plasma concentration of valproic acid; format: in vivo, human; conditions: 400 mg enteric-coated tablet with delayed absorption, oral, once daily at 11 pm, clock time
Procedure: (§2) An intermediate endpoint proof-of-concept study is performed in patients with TIA/minor stroke investigated before and after treatment with Valproic acid. Valproic acid is administrated as an enteric-coated tablet with delayed absorption.
(§3) The study comprises 20 patients with TIA/minor stroke. Patients are investigated before and after oral treatment with 400 mg valproic acid once time daily at 11 pm for 2 weeks. Plasma PAI-1 levels and plasma concentrations of valproic acid is followed daily during the study period at the following time-points: 3 am, 6 am, 10 am, 16 pm, 22 pm PAI-1 levels are measured by commercially available ELISA-kits (Coaliza PA-1, Chromogenix AB) and the plasma concentration of valproic acid an metabolites thereof is analyzed according to clinical routine at the Sahlgrenska University laboratory, Gothenburg, Sweden.

PAI-1 [5] = conditions: in vivo model in pig (Svennerholm et al. 2014); cited from earlier work
PAI-1 [6] = test: Intermediate endpoint study in patients with TIA/minor stroke: plasma PAI-1 levels; format: in vivo, human; conditions: 20 patients with TIA/minor stroke; 400 mg valproic acid enteric-coated tablet with delayed absorption, once daily at 11 pm for 2 weeks
Procedure: as §2, §3

PAI-1 [7] = conditions: cultured endothelial cells; no decrease of PAI-1 mRNA levels after VPA treatment; slight but significant; cited from earlier work

## CCCC(CCC)C(=O)O [valproic acid, 2-propylpentanoic acid]
PAI-1 [1]
  effects on plasma PAI-1: did not detect any effects
PAI-1 [2]; 10 healthy non-smoking male subjects aged 50-70, valproic acid 500 mg (Ergenyl Retard, Sanofi) twice daily 14 days, mid-morning vs before treatment
  reduction in circulating plasma PAI-1 levels: more than 50%
PAI-1 [2]; healthy male subjects, 500 mg (Ergenyl Retard) twice daily 14 days, mid-morning, from 22.2 ng/ml before treatment
  circulating plasma PAI-1 level after treatment: 10.8 ng/mL
PAI-1 [3]
  reduction in circulating plasma PAI-1 levels: 45%
PAI-1 [3]; listed as VPA
  reduction in circulating plasma PAI-1 levels: about 45%
PAI-1 [3]; patients with history of myocardial infarction, 500 mg (Ergenyl Retard) twice daily 28 days, from 19.6 ng/ml before treatment
  circulating plasma PAI-1 level after treatment: 11 ng/mL
[4]
  time of peak plasma concentration of valproic acid: peak between 3 am and 6 am
PAI-1 [5]
  effects on plasma PAI-1: did not detect any effects
PAI-1 [6]
  plasma PAI-1 levels lowered after the treatment: approximately 30%
PAI-1 [7]
  increase in PAI-1 production: 30%
